Measured values reported in publication PMC5462828 (Scientific Reports, 2017).

Tests used:
[1] = test system: human RXFP1; conditions: cited from earlier work
[2] = test system: T1, RXFP1 and Gαs; assay: Real-time kinetic BRET, RXFP1-Rluc8 / Gαs; type: cell-based, human; conditions: HEK293T co-expressing RXFP1-Rluc8, Gγ2-Venus, Gβ1, Gαs; H2 relaxin 100 nM, ML290 100 nM or 10 μM
T1 construct: forward primer encodes M-D-S-K-G-S-S, not the native RXFP1 start (N); expressed in transfected cells; host or cells: HEK293T cells stably expressing RXFP1-Rluc8, transiently co-transfected with the G protein subunits
Protocol: HEK293 cell were seeded in 6-well plates at a density of 600,000 cells per well and transfected with constructs encoding the tagged receptors and signalling proteins. 24 h later cells were harvested in HEPES-buffered phenol red-free medium containing 5% FBS and plated out in a white 96-well plate (Nunc) that was incubated at 37 °C under 5% CO2. BRET assays were performed 48 h after transfection as described previously, [52]. Medium was replaced with phenol-red-free-DMEM supplemented with 5% FBS plus 5 μM coelenterazine h. BRET measurements were made at 37 °C using the PHERAstar Omega plate reader with Omega software (BMG LABTECH, Germany). Filtered light emissions were simultaneously measured in each of the “donor wavelength window” (475 ± 15 nm for Rluc8 with coelenterazine h) and “acceptor wavelength window” (535 ± 15 nm for Venus). Cells were assayed before and after treatment with ligands or 5% FBS phenol-red-free-DMEM medium containing 0.01% w/v BSA (vehicle). The BRET signal was calculated as previously described.

[3] = test system: p-Smad3; assay: Smad3 phosphorylation assay in human cardiac fibroblasts; type: cell-based; conditions: 72 hours
Protocol: Cells were serum-starved in M199 medium for 24 hours prior sample collection. Cells were used between passages 1–4, while all experiments were performed four separate times in duplicate. Levels of p-Smad2 and p-Smad3 were detected using Sure-fire kits according to the manufacturer’s instructions (Perkin-Elmer, Australia).

[4] = test system: RXFP1; assay: ERK1/2 phosphorylation (Surefire) in human primary vascular cells and cardiac fibroblasts; type: cell-based; conditions: HUAEC
Protocol: (§1) p-ERK1/2, p-p38MAPK and p-JNK1/2 was measured using the Surefire ERK, p38 and JNK kits (TGR BioSciences, Australia) as described previously, [16]. Briefly, HEK-RXFP1 cells were plated into 96-well plates (5 × 10^4 cells/well) and primary cells grown in 24-well plates (1 × 10^5 cells/well) overnight to achieve a confluent monolayer. Prior to stimulation, HEK293 cells were serum-starved with DMEM containing 0.5% (v/v) FBS and primary cells in M199 medium for 4–6 hours. […] Levels of p-ERK1/2, p-p38MAPK and p-JNK1/2/3 were detected as per manufacturer’s instructions (Perkin-Elmer, Australia).

[5] = test system: RXFP1; assay: cGMP accumulation in human primary vascular cells and cardiac fibroblasts; type: cell-based; conditions: HUAEC, cells that do not express cell surface RXFP1; 30 min
Protocol: (§2) cAMP and cGMP accumulation was determined as previously described, [16]. Briefly, HEK293 cells were plated in 96-well plates (5 × 10^4 cells/well) and human primary cells were plated into 24-well plates (1 × 10^5 cells/well) and grown overnight to achieve a confluent monolayer. Prior to stimulation, HEK cells were serum-starved in DMEM containing 0.5% FBS v/v and primary cells were serum-starved in M199 medium for 4–6 hours. Where appropriate, cells were pre-incubated with mSIRK (5 μM, 30 min), mSIRK control peptide L9A (5 μM, 30 min), gallein (100 μM, 30 min), Wortmannin (100 nM, 30 min), NF023 (10 μM, 30 min) and NF449 (10 μM, 30 min). Levels of cAMP and cGMP were detected according to the manufacturer’s instructions (Perkin-Elmer, Australia).

[6] = molecular target: T2, RXFP1 (Homo sapiens, UniProt Q9HBX9); assay: as above; type: cell-based; conditions: for cGMP accumulation, maximum: DEA 10 μM, 5 min
T2 sequence (Q9HBX9 1-757): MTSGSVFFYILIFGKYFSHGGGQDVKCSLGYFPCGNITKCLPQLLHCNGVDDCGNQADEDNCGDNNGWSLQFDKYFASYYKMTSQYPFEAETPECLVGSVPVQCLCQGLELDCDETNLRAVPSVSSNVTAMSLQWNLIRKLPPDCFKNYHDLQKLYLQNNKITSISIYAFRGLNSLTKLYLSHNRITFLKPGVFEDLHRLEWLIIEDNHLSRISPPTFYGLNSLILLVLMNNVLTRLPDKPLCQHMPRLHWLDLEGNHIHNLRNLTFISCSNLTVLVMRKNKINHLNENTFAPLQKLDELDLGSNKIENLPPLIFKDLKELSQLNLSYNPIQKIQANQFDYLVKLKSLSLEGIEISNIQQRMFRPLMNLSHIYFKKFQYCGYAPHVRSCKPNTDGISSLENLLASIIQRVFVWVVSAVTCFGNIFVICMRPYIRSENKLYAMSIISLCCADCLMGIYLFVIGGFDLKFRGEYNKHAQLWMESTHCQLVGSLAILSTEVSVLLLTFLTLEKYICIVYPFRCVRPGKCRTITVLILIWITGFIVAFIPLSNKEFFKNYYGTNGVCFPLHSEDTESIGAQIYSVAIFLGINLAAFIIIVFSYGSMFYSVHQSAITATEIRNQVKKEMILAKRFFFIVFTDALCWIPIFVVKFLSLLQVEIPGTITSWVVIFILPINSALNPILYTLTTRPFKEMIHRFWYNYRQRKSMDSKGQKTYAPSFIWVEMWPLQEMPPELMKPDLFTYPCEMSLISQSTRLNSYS
Protocol: as §2

[7] = test system: pig RXFP1; design: method as in PMID 26866459; conditions: cited from earlier work
[8] = test system: RXFP1; assay: cAMP accumulation in human primary vascular cells and cardiac fibroblasts; type: cell-based; conditions: HUAEC, cells known not to express cell surface RXFP1; 30 min
Protocol: as §2

[9] = molecular target: T2, RXFP1; assay: as above; type: cell-based; conditions: for Emax: 30 min
Protocol: as §2

[10] = molecular target: T2, RXFP1; assay: ERK1/2 phosphorylation (Surefire) in HEK-RXFP1 cells; type: cell-based; design: expressed in transfected cells; host or cells: HEK293T / HEK293 cells stably expressing RXFP1 (HEK-RXFP1); conditions: ML290 10 μM, 10 min pretreatment
Protocol: as §1

For `CC(C)Oc1ccccc1C(=O)Nc1ccccc1C(=O)Nc1cccc(S(=O)(=O)C(F)(F)F)c1` [ML290, 2-Isopropoxy-N-(2-(3-(trifluoromethylsulfonyl)phenylcarbamoyl)phenyl) benzamide], the “agonist action at human RXFP1” value [1] is given as “activates”, the “ligand-induced BRET, RXFP1 - Gαs interaction” value [2] is given as “promoted interactions” and the “effect on p-Smad3 levels” value ([3]; HCFs not treated with TGF-β1, H2 relaxin 0.1 μM, ML290 1 μM) is given as “neither H2 relaxin (0.1 μM) nor ML290 (1 μM) significantly affected”. The “p-Smad3 in TGF-β1-stimulated cells” value ([3]; HCFs, TGF-β1 2 ng/ml + H2 relaxin 0.1 μM or ML290 1 μM) was 1.15 ± 0.05 fold/basal, the ERK1/2 phosphorylation [4] was “did not cause ERK1/2 phosphorylation” and the cGMP accumulation [5] was “no effect”. The “cGMP accumulation, maximum” value ([6]; HCAEC, 30 min) was 40.6 ± 5.6 % of the DEA response, the “cGMP accumulation, maximum” value ([6]; HUASMC, 30 min) was 21.0 ± 4.1 % of the DEA response and the Emax ([6]; HUVEC, read-out: cGMP accumulation efficacy (Emax), HUVEC, 30 min) was 23.5%. The “cGMP accumulation, maximum” value ([6]; HUVEC, 30 min) was 23.5 ± 4.4 % of the DEA response, the “cGMP accumulation, maximum” value ([6]; HUVSMC, 30 min) was 11.0 ± 3.4 % of the DEA response and the Emax ([6]; read-out: cGMP accumulation efficacy (Emax), HCAEC, 30 min) was 40.6%. For the same compound, the Emax ([6]; read-out: cGMP accumulation efficacy (Emax), HCF) was 45.3%, the Emax ([6]; read-out: cGMP accumulation efficacy (Emax), HUASMC, 30 min) was 21% and the Emax ([6]; read-out: cGMP accumulation efficacy (Emax), HUVSMC, 30 min) was 11%. For the same compound, the “agonist action at pig RXFP1” value [7] was “activates”, the cAMP accumulation [8] was “did not cause cAMP accumulation” and the Emax ([9]; HUVEC, read-out: cAMP accumulation efficacy (Emax), HUVEC) was 11.7%. For the same compound, the “potency for cAMP accumulation, less potent than H2 relaxin” value ([9]; human primary vascular cells) was 3 orders of magnitude, the Emax ([9]; read-out: cAMP accumulation efficacy (Emax), HCAEC) was 17.9% and the Emax ([9]; read-out: cAMP accumulation efficacy (Emax), HUASMC) was 11.9%. The “effect of pretreatment on maximum p-ERK1/2 response to relaxin” value [10] was “significantly increased”.
